Results from PubChem BioAssay AID248 (DTP/NCI, 2004).
Values joined by “and” are separate entries in the source; they are usually repeats but may differ in a detail not shown here. Equal values may be shown once. Toxic doses and inconclusive results are not listed. Rule as the data show it: active = T/C of 150% or more; inactive = T/C below 125%.

Tested on: L1210 leukemia ip in BDF1 mice, survival T/C
Experiment: NCI In Vivo Anticancer Drug Screen. Data for tumor model L1210 Leukemia (intraperitoneal) in B6D2F1 (BDF1) mice
Settings: endpoint: mean survival time, higher = longer survival
Outline: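 Tumor cells were implanted, animals were treated, and survival was followed. The result divides the treated measurement by the vehicle-control measurement.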

[1] = dose: 100.0 mg/kg/injection, schedule: Q04DX003 (ip), vehicle: saline with Tween-80
[2] = dose: 200.0 mg/kg/injection, schedule: Q04DX003 (ip), vehicle: saline with Tween-80
[3] = dose: 400.0 mg/kg/injection, schedule: Q04DX003 (ip), vehicle: saline with Tween-80
[4] = dose: 100.0 mg/kg/injection, schedule: Q04DX003 (ip), vehicle: Klucel (hydroxypropylcellulose) (HPC)
[5] = dose: 200.0 mg/kg/injection, schedule: Q04DX003 (ip), vehicle: Klucel (hydroxypropylcellulose) (HPC)
[6] = dose: 400.0 mg/kg/injection, schedule: Q04DX003 (ip), vehicle: Klucel (hydroxypropylcellulose) (HPC)
[7] = dose: 100.0 mg/kg/injection, schedule: Q01DX009 (ip), vehicle: Klucel (hydroxypropylcellulose) (HPC)
[8] = dose: 200.0 mg/kg/injection, schedule: Q01DX009 (ip), vehicle: Klucel (hydroxypropylcellulose) (HPC)
[9] = dose: 400.0 mg/kg/injection, schedule: Q01DX009 (ip), vehicle: Klucel (hydroxypropylcellulose) (HPC)
[10] = dose: 100.0 mg/kg/injection, schedule: Q01DX009 (ip), vehicle: saline with Tween-80
[11] = dose: 200.0 mg/kg/injection, schedule: Q01DX009 (ip), vehicle: saline with Tween-80
[12] = dose: 400.0 mg/kg/injection, schedule: Q01DX009 (ip), vehicle: saline with Tween-80
[13] = dose: 100.0 mg/kg/injection, schedule: Q04DX002 (ip), vehicle: saline with Tween-80
[14] = dose: 200.0 mg/kg/injection, schedule: Q04DX002 (ip), vehicle: saline with Tween-80

Measured: T/C

Brc1cccc([Si](c2ccccc2)(c2ccccc2)c2cccc(Br)c2)c1
inactive: [1] 98 % of control | [2] 98 % of control | [3] 95 % of control

CN(C)c1nn[nH]n1
inactive: [4] 95 % of control | [5] 88 % of control | [6] 95 % of control

CC(C)CCC(=O)CCC1CCCCC1
inactive: dose: 100.0 mg/kg/injection, schedule: Q01DX001 (ip), vehicle: saline 92 % of control | dose: 200.0 mg/kg/injection, schedule: Q01DX001 (ip), vehicle: saline 92 % of control | dose: 400.0 mg/kg/injection, schedule: Q01DX001 (ip), vehicle: saline 94 % of control

CCOC(=O)C1C2C=CC(N3C(=O)c4ccccc4C3=O)CC21 (centres undefined)
inactive: dose: 100.0 mg/kg/injection, schedule: Q01DX009 (ip), vehicle: gum acacia 92 % of control | dose: 200.0 mg/kg/injection, schedule: Q01DX009 (ip), vehicle: gum acacia 91 % of control | dose: 400.0 mg/kg/injection, schedule: Q01DX009 (ip), vehicle: gum acacia 97 % of control

O=C(O)CCc1cnc2ccccc2n1
inactive: [7] 97 % of control | [4] 106 % of control | [8] 95 % of control | [5] 95 % of control | [9] 96 % of control | [6] 92 % of control

Brc1ccc(N2N=NC3CNCC32)cc1 (centres undefined)
inactive: [1] 92 % of control | [2] 105 % of control | [3] 94 % of control

CC(O)(C(=O)c1ccccc1)c1ccc(Cl)cc1 (centres undefined)
inactive: [4] 95 % of control | [5] 98 % of control | [6] 101 % of control

c1ccc(-c2cc3ccncc3c3ccccc23)cc1
inactive: dose: 100.0 mg/kg/injection, schedule: Q04DX003 (ip), vehicle: water 102 % of control | dose: 200.0 mg/kg/injection, schedule: Q04DX003 (ip), vehicle: water 96 % of control | dose: 400.0 mg/kg/injection, schedule: Q04DX003 (ip), vehicle: water 96 % of control

Nc1c(I)cc(C(=O)O)c(O)c1I
inactive: dose: 50.0 mg/kg/injection, schedule: Q01DX009 (ip), vehicle: saline with Tween-80 97 % of control | [10] 94 % of control | [1] 94 % of control | [11] 94 % of control | [2] 98 % of control

C=C(Br)CNC(=O)NCCN1CCOCC1
inactive: [1] 97 % of control | [2] 111 % of control | [3] 97 % of control

CC(C)CC1NC(=O)C(NC(=O)C(Cc2ccccc2)N(C)C)C(C(C)C)Oc2ccc(cc2)/C=C\NC1=O (centres undefined)
inactive: dose: 50.0 mg/kg/injection, schedule: Q01DX001 (ip), vehicle: Klucel (hydroxypropylcellulose) (HPC) 90 % of control | dose: 100.0 mg/kg/injection, schedule: Q01DX001 (ip), vehicle: Klucel (hydroxypropylcellulose) (HPC) 90 % of control | dose: 200.0 mg/kg/injection, schedule: Q01DX001 (ip), vehicle: Klucel (hydroxypropylcellulose) (HPC) 93 % of control

COC(OC)c1cc(=O)[nH]c(=S)n1Cl
inactive: [7] 86 % of control | [4] 102 % of control | [8] 91 % of control | [5] 107 % of control | [9] 91 % of control | [6] 105 % of control

OCC1OC(n2ncc3c(=S)nc[nH]c32)C(O)C1O (centres undefined)
inactive: dose: 12.5 mg/kg/injection, schedule: Q01DX005 (ip), vehicle: other 103 % of control | dose: 25.0 mg/kg/injection, schedule: Q01DX005 (ip), vehicle: other 95 % of control | dose: 50.0 mg/kg/injection, schedule: Q01DX005 (ip), vehicle: other 97 % of control | dose: 100.0 mg/kg/injection, schedule: Q01DX005 (ip), vehicle: other 98 % of control | dose: 200.0 mg/kg/injection, schedule: Q01DX005 (ip), vehicle: other 98 % of control

COc1ccc(Cl)cc1NC(=O)CC(C)=O
inactive: [7] 101 % of control | [4] 97 % of control | [8] 101 % of control | [5] 99 % of control | [9] 95 % of control | [6] 94 % of control

C=C(Br)CNC(=O)NCC(=C)Br
inactive: [10] 105 % of control | [11] 100 % of control | [12] 105 % of control

CCOC(=O)NO
inactive: dose: 27.0 mg/kg/injection, schedule: Q03HX024 (ip), vehicle: saline 95 % of control | dose: 40.0 mg/kg/injection, schedule: Q03HX024 (ip), vehicle: saline 97 % of control | dose: 50.0 mg/kg/injection, schedule: Q01DX Z (ip), vehicle: carboxymethylcellulose (CMC) 93 % of control | dose: 60.0 mg/kg/injection, schedule: Q03HX024 (ip), vehicle: saline 100 % of control | dose: 90.0 mg/kg/injection, schedule: Q03HX024 (ip), vehicle: saline 100 % of control | dose: 100.0 mg/kg/injection, schedule: Q01DX009 (ip), vehicle: saline 97 % of control and 98 % of control | dose: 100.0 mg/kg/injection, schedule: Q01DX Z (ip), vehicle: carboxymethylcellulose (CMC) 109 % of control | dose: 120.0 mg/kg/injection, schedule: Q01DX009 (ip), vehicle: saline 110 % of control | dose: 135.0 mg/kg/injection, schedule: Q03HX024 (ip), vehicle: saline 124 % of control | dose: 180.0 mg/kg/injection, schedule: Q01DX009 (ip), vehicle: saline 119 % of control | dose: 200.0 mg/kg/injection, schedule: Q01DX009 (ip), vehicle: saline 95 % of control and 100 % of control | dose: 400.0 mg/kg/injection, schedule: Q01DX009 (ip), vehicle: saline 102 % of control and 107 % of control | dose: 600.0 mg/kg/injection, schedule: Q01DX009 (ip), vehicle: saline 117 % of control

COc1ccc(N(Cc2ccccc2)c2nn[nH]n2)cc1
inactive: [4] 93 % of control | [5] 90 % of control | [6] 97 % of control

NC(CCC(=O)NC(=O)OCc1ccccc1)C(=O)O (centres undefined)
inactive: [10] 102 % of control | [11] 100 % of control | [12] 97 % of control

O=S(=O)(O)n1nc2ccccc2c1-c1ccccc1
inactive: [13] 96 % of control | [14] 96 % of control

O=C(O)Cc1ccc(Cl)cc1
inactive: dose: 75.0 mg/kg/injection, schedule: Q04DX003 (ip), vehicle: saline with Tween-80 93 % of control | dose: 100.0 mg/kg/injection, schedule: Q01DX001 (ip), vehicle: saline with Tween-80 98 % of control | dose: 150.0 mg/kg/injection, schedule: Q04DX003 (ip), vehicle: saline with Tween-80 96 % of control | dose: 200.0 mg/kg/injection, schedule: Q01DX001 (ip), vehicle: saline with Tween-80 95 % of control | dose: 300.0 mg/kg/injection, schedule: Q04DX003 (ip), vehicle: saline with Tween-80 87 % of control | dose: 400.0 mg/kg/injection, schedule: Q01DX001 (ip), vehicle: saline with Tween-80 91 % of control

COP(=O)(O)Oc1ccccc1
inactive: dose: 87.5 mg/kg/injection, schedule: Q01DX009 (ip), vehicle: saline with Tween-80 100 % of control | dose: 175.0 mg/kg/injection, schedule: Q01DX009 (ip), vehicle: saline with Tween-80 100 % of control

N#CCC(=O)N/N=C/c1cc(Cl)cc(Cl)c1O
inactive: [13] 108 % of control | [14] 97 % of control | dose: 400.0 mg/kg/injection, schedule: Q04DX002 (ip), vehicle: saline with Tween-80 93 % of control

O=C(CCCl)Nc1ccc(S(=O)(=O)Nc2nccs2)cc1
inactive: dose: 100.0 mg/kg/injection, schedule: Q01DX001 (ip), vehicle: other 101 % of control | dose: 200.0 mg/kg/injection, schedule: Q01DX001 (ip), vehicle: other 95 % of control | dose: 400.0 mg/kg/injection, schedule: Q01DX001 (ip), vehicle: other 97 % of control

C=C1CC2(OC1=O)C(=O)N(C)c1ccc(I)cc12 (centres undefined)
inactive: dose: 25.0 mg/kg/injection, schedule: Q04DX002 (ip), vehicle: saline with Tween-80 101 % of control | dose: 50.0 mg/kg/injection, schedule: Q04DX002 (ip), vehicle: saline with Tween-80 97 % of control | [13] 102 % of control

NC(=S)N/N=C/c1cc2c3c(c1)CCCN3CCC2
inactive: [1] 109 % of control | [2] 103 % of control | [3] 103 % of control

CCCCCCCCCCCCCCCC(=O)NNC(C)C
inactive: dose: 25.0 mg/kg/injection, schedule: Q01DX009 (ip), vehicle: Klucel (hydroxypropylcellulose) (HPC) 94 % of control | dose: 25.0 mg/kg/injection, schedule: Q04DX003 (ip), vehicle: Klucel (hydroxypropylcellulose) (HPC) 94 % of control | dose: 50.0 mg/kg/injection, schedule: Q01DX009 (ip), vehicle: Klucel (hydroxypropylcellulose) (HPC) 95 % of control | dose: 50.0 mg/kg/injection, schedule: Q04DX003 (ip), vehicle: Klucel (hydroxypropylcellulose) (HPC) 91 % of control | [7] 86 % of control | [4] 105 % of control | [8] 91 % of control | [5] 89 % of control | [9] 92 % of control | [6] 89 % of control
